Measured values as given in patent US10786445B2 (BIOGEN CHESAPEAKE LLC, priority 2010, dated 2020).
“And” between values parts separate entries of the source, which are not always exact repeats. Equal entries are not always repeated. Where two headings read alike, the source gives them in different places. Marks after values point to notes of the source that are not given here.

Experiments:
[1] = Pharmacokinetics of glyburide after intravenous administration (published studies); format: in vivo, human
Description: All patents and publications discussed herein are hereby incorporated by reference in their entireties.

[2] = Study 101 Phase 1: plasma glyburide pharmacokinetics, bolus plus 72 h continuous infusion of RP-1127; format: in vivo, human
Experimental: All plasma concentration data were analyzed by nonlinear regression, simultaneously incorporating drug behavior during and after the infusion.

[3] = In-use stability testing of glyburide solutions (PVC contact, in-line filter, flushing protocols); format: physicochemical
Description: One possible explanation is that glyburide adsorbs to PVC.

[4] = Preclinical experiments: filtering concentrated reconstituted glyburide, dilution into PVC-free bag; format: physicochemical
Experimental: In these experiments, the filtered material was diluted into a PVC-free bag (for example, the B Braun EXCEL L8000).
Patients in need of glyburide treatment include patients suffering from stroke, such as acute stroke (ischemic and hemorrhagic), traumatic brain injury (TBI), spinal cord injury (SCI), myocardial infarction (MI), shock (including hemorrhagic shock), organ ischemia, ventricular arrhythmias, ischemic injury; hypoxia/ischemia; and other injuries, conditions, and disorders.

[5] = Study 101 Phase 1: serum ALT and AST; format: in vivo, human; conditions: subject receiving 6 mg/day, treated with 4,309 calories over 24 hours, two thirds carbohydrates
[6] = cited from earlier work
[7] = system: blood glucose; assay: Study 101 Phase 1: blood glucose / hypoglycemia; conditions: for Effect on median blood glucose levels: FIG. 5; for Time at which dosing was stopped early due to the hypoglycemic effect: planned 72 h infusion
Experimental: Blood glucose was measured throughout the study, both to obtain pharmacodynamic information as well as for safety reasons. The dosing regimen was a bolus over 2 minutes followed by a continuous infusion for 72 hours.

[8] = both sexes, human, in vivo, iv, Morrison et al. 1982, healthy males and females, N 8, i.v. dose 2.4 mg
[9] = both sexes, human, in vivo, iv, Neugebauer et al. 1985, NIDDM males and females, N 20, i.v. dose 1.25 mg
[10] = both sexes, human, in vivo, iv, Rydberg et al. 1995, healthy males and females, N 8, i.v. dose 1.0 mg, normalized to 70 kg
[11] = male, human, in vivo, iv, McEwen et al. 1982, healthy males, N 20, i.v. dose 1.48 mg
[12] = 0.4 mg/day, limit of detection 0.5 ng/mL
[13] = Study 101, 0.4 and 3.0 mg/day (N = 26), nonlinear regression
[14] = Jonsson et al. 2000, healthy males and females, data from Caucasian patients, N 10, i.v. dose 2.0 mg
[15] = McEwen et al. 1982, healthy males, N 20, i.v. dose 1.48 mg
[16] = Morrison et al. 1982, healthy males and females, N 8, i.v. dose 2.4 mg
[17] = Neugebauer et al. 1985, NIDDM males and females, N 20, i.v. dose 1.25 mg
[18] = Rogers et al. 1982, healthy males and females, N 8, i.v. dose 1 mg
[19] = Sorgel et al. 1997, healthy males, N 24, i.v. dose 1.5 mg

Beta ([1]; Rydberg et al. 1995, healthy males and females, N 8, i.v. dose 1.0 mg, normalized to 70 kg): 0.52*‡ 1/h
clearance [1, 8]: 73.7 mL/min
half-life [1, 8]: 1.18 h
Vd [1, 9]: 11.6 L
clearance [1, 9]: 73.5 mL/min
Vd [1, 10]: 10.9 L
clearance [1, 10]: 91 mL/min
clearance ([1]; both sexes, human, plasma, iv, Jonsson et al. 2000, healthy males and females, data from Caucasian patients, N 10, i.v. dose 2.0 mg): 28 mL/min
Vd [1, 11]: 9.7 L
clearance [1, 11]: 48.7 mL/min
mean steady state glyburide concentration (Css) ([2]; 17.3 μg bolus plus 0.4 mg/day, 72 h infusion): 3.8 ng/mL
mean Css ([2]; 130 μg bolus plus 3 mg/day, 72 h infusion): 25.3 ng/mL
Mean glyburide plasma level at treatment cessation ([2]; 0.4 mg/day): 4.4 ng/mL
Reduction of mean glyburide plasma levels within one hour of treatment cessation ([2]; 0.4 mg/day): 54%
Hour by which plasma levels were below the limits of detection in 50% of the patients [2, 12]: ≤ 76 h
Hour by which plasma levels were below the limits of detection in 100% of patients [2, 12]: ≤ 96 h
Hour by which plasma levels were below the limits of detection in 50% of the subjects ([2]; 3 mg/day): ≤ 84 h
Hour by which plasma levels were below the limits of detection in 100% of patients ([2]; 3 mg/day): ≤ 96 h
Mean glyburide plasma level at cessation of dosing ([2]; 3 mg/day): 27.3 ng/mL
Reduction of mean glyburide plasma levels within 1 hour of cessation of dosing ([2]; 3 mg/day): 57%
clearance ([2]; Study 101, 0.4 and 3.0 mg/day (N = 26)): 54 mL/min/m^2
T1/2α [2, 13]: 0.44 h
T1/2β [2, 13]: 3.31 h
Time to steady state following bolus administration ([2]; Study 101, bolus plus continuous infusion): 8 to 20 h
Time of minimum plasma glyburide concentration after commencement of dosing (median) ([2]; Study 101, drop following the initial bolus loading dose): 1.25 to 1.5 h
Cmax ([2]; both sexes, human, plasma, intravenous, 17.3 μg bolus plus 0.4 mg/day, 72 h infusion): 7.2 ng/mL
concentration at 1 h after treatment cessation ([2]; both sexes, human, plasma, intravenous, 0.4 mg/day): 2 ng/mL
concentration at 1 h after cessation of dosing ([2]; both sexes, human, plasma, intravenous, 3 mg/day): 11.9 ng/mL
clearance ([2]; both sexes, human, plasma, intravenous, Study 101, 0.4 and 3.0 mg/day (N = 26), read-out: Clearance): 95 mL/min and 1.44 mL/min/kg
Cmax ([2]; human, plasma, intravenous, 130 μg bolus plus 3 mg/day, 72 h infusion, one patient, read-out: Cmax (of all individual subjects)): 50.7 ng/mL
concentration at 2 h ([2]; human, plasma, intravenous, 433 μg bolus plus 10 mg/day, single subject, at hour 2 (BG below 70 mg/dL)): 57.9 ng/mL
concentration at 12 h ([2]; human, plasma, intravenous, 6 mg/day, single subject, at H12 (BG 68 mg/dL)): 64 ng/mL
loss of glyburide in standard PVC bag ([3]; 10 μg/mL glyburide, PVC bag but not PVC tubing): acceptable amount of loss of glyburide
glyburide concentration after passage through a filter ([3]; 0.2 micron in-line filter): reduced
reduction in glyburide passing through the full chain of components ([3]; all components and flushing protocols): less than 10%
glyburide concentration on storage in PVC bags ([3]; glyburide concentrations below 10 μg/mL): reduced
glyburide concentration on contact with polyvinyl chloride (PVC) ([3]; solution passed through PVC tubing or stored in a PVC bag): reduced
blood glucose levels ([7]; 433 μg bolus plus 10 mg/day, single subject, H12-H22): 52 to 53 mg/dL
BG ([7]; 433 μg bolus plus 10 mg/day, single subject, hour 2): below 70 mg/dL
morning serum glucose ([7]; 433 μg bolus plus 10 mg/day, single subject, hour 22): below 50 mg/dL
Hypoglycemia ([7]; 6 mg/day delivered as continuous infusion): severe hypoglycemia occurred
Time at which dosing was stopped early due to the hypoglycemic effect ([7]; 6 mg/day): around 32 hours
blood glucose levels ([7]; 6 mg/day, single subject, H0 to H8): above 70 mg/dL
blood glucose ([7]; 6 mg/day, single subject, after IV dextrose (10%) 100 cc/hour from approximately H29): 64 to 123 mg/dL
BG ([7]; 6 mg/day, single subject, at H12): 68 mg/dL
Hypoglycemia ([7]; 10 mg/day delivered as continuous infusion): severe hypoglycemia occurred
Time at which dosing was stopped early due to the hypoglycemic effect ([7]; 10 mg/day): around 24 hours
Compound: COc1ccc(Cl)cc1C(=O)NCCc1ccc(S(=O)(=O)NC(=O)NC2CCCCC2)cc1 [Glyburide, 5-chloro-N-(4-[N-(cyclohexylcarbamoyl)sulfamoyl]phenethyl)-2-methoxybenzamide]
Dependence of pharmacokinetic parameters on covariates ([2]; Study 101): independent of dose, weight, height, body surface area, gender and age
Effect of filtering on glyburide concentration ([4]; 0.2 micron filter, at least about 10 μg/mL, preferably about 0.5-1 mg/mL or greater): does not significantly decrease the glyburide concentration
Loss of glyburide from glyburide solutions ([4]; filter 1 mg/mL concentrate, dilute into PVC-free bag, unfiltered polyethylene lined tubing): effective to reduce the loss of glyburide
ALT and AST [5]: transient elevations in ALT and AST
mean glyburide Cmax after administration of the bolus ([6]; Groop et al. 1987, bolus dose followed by continuous i.v. infusion): 240 ng/mL
Cmax [6, 14]: 196 ng/mL
clearance [6, 14]: 101.3 mL/min
t1/2 [6, 14]: 1.15 h
Beta [6, 15]: 0.3 h⁻¹
clearance [6, 15]: 49 mL/min
t1/2 [6, 15]: 2.46 h
Beta [6, 16]: 0.62 h⁻¹
Cmax [6, 16]: 648 ng/mL
Vd [6, 16]: 7.4 L
clearance [6, 16]: 73.7 mL/min
Beta [6, 17]: 0.38 h⁻¹
Cmax [6, 17]: 376 ng/mL
clearance [6, 17]: 73.5 mL/min
t1/2 [6, 17]: 1.82 h
Beta [6, 18]: 0.517 h⁻¹
t1/2 [6, 18]: 1.47 h
t1/2 ([6]; Rydberg et al. 1995, healthy males and females, N 8, i.v. dose 1.0 mg): 1.47 ± 0.42 h
Cmax [6, 19]: 331 ± 65 ng/mL
Tmax [6, 19]: 5.4 min
Vd [6, 19]: 11.22 ± 3 L
clearance [6, 19]: 74.7 ± 22 mL/min
t1/2 [6, 19]: 4.22 ± 1 h
t1/2 ([6]; Spraul et al. 1989, healthy males and females, N 52, i.v. dose 4.0 mg): 1.50 ± 0.36 h
Maximum glyburide plasma concentrations ([6]; range over studies: Rogers et al. 1982, Groop et al. 1987, Bank et al. 2000, Jonsson et al. 2000): 200 to 436 ng/mL
Effect on median blood glucose levels ([7]; 0.4 mg/day vs placebo): very minor but visible effect on BG
Symptoms of hypoglycemia ([7]; 433 μg bolus plus 10 mg/day, single subject): classic symptoms of hypoglycemia but was always alert, oriented and conversant
Effect on median blood glucose levels ([7]; 3.0 mg/day vs placebo): more pronounced effect, without hypoglycemia
Signs of hypoglycemia ([7]; 6 mg/day, single subject, approximately H13.3, lasted 15 minutes): signs of hypoglycemia in the form of sweating (diaphoresis) and hunger
